Consider 10 molecules from patent EP1019392B1, “TRICYCLIC AMIDES USEFUL FOR INHIBITION OF G-PROTEIN FUNCTION AND FOR TREATMENT OF PROLIFERATIVE DISEASES” (SCHERING CORPORATION, priority 1995, dated 1997).

By IC50 is commonly meant the concentration that gives 50% inhibition.

Type in all cases: cell-based
Experiment [1] deals with Ras-CVLS processing in COS monkey kidney cells. The experiment in a line: COS cell assay: inhibition of Ras-CVLS processing (Western blot).
The test system of experiment [2] is SW620-BAG human colon carcinoma cells expressing an activated K-ras gene. The experiment can be described thus: Cell Mat Assay, SW620 tumor cells.
Another experiment relates to Human tumor cells. The experiment in a line: Soft Agar Assay (anchorage-independent growth). Conditions: range over 5 tumor cell lines (K ras NIH 3T3, H ras NIH 3T3, HTB 177, A549, HTB 175), read-out: IC50 for each cell line.
The subject of experiment [3] is Ras-CVLL in COS monkey kidney cells. The experiment in a line: COS cell assay: geranylgeranylation of Ras-CVLL (Western blot). (In general: A western blot detects proteins with antibodies after separation by electrophoresis.)
Where [4] appears, read: Homo sapiens, SW-620, Mat assay.

Read-outs that look alike come from different tables or passages of the source.

`NC(=O)N1CCC(CC(=O)N2CCC(C3c4ccc(Cl)c(Br)c4CCc4cc(Br)cnc43)CC2)CC1` (single isomer, unassigned) [Example 13] gave an IC50 in experiment [1] of 0.42 µM.
For `O=C(Cc1cc[n+]([O-])cc1)N1CCC(C2c3ccc(Cl)c(Br)c3CCc3cc(Br)cnc32)CC1` (single isomer, unassigned) [Example 14A], the IC50 in experiment [2] (setting [4]) was 12.5 µM; in experiment [1], 0.48 µM.
Regarding `NC(=O)N1CCC(CC(=O)N2CCC(C3c4ncc(Br)cc4CCc4cc(Cl)cc(Cl)c43)CC2)CC1` (single isomer, unassigned) [Example 18], the IC50 in the experiment on Human tumor cells is 0.175 to 0.8 µM; in experiment [1] (Primates, COS) it was 0.025 µM.
`O=C(Cc1cc[n+]([O-])cc1)N1CCN([C@H]2c3ccc(Cl)c(Br)c3CCc3cc(Br)cnc32)CC1` [Example 5] yielded an IC50 in experiment [2] (setting [4]) of 6.25 µM.
As to `O=C(Cc1cc[n+]([O-])cc1)N1CCC(=C2c3ncc(Br)cc3CCc3cc(Cl)cc(Br)c32)CC1` (racemic) [Example 7], the IC50 was 6.25 µM in experiment [2] (setting [4]) and less than 0.25 µM in experiment [1] (Primates, COS).
The matching figures for `O=C(Cc1cc[n+]([O-])cc1)N1CCN([C@H]2c3ccc(Cl)cc3CCc3cc(Br)cnc32)CC1` [Example 16B]: 25 µM and 0.125 µM.
`O=C(Cc1cc[n+]([O-])cc1)N1CCN([C@@H]2c3ccc(Cl)cc3CCc3cc(Br)cnc32)CC1` [Example 16A] returned an IC50 in experiment [1] (Primates, COS) of 0.5 µM.
With `O=C(Cc1cc[n+]([O-])cc1)N1CCN([C@H]2c3ncc(Br)cc3CCc3cc(Cl)cc(Br)c32)CC1` [Example 11A], the IC50 in experiment [2] (Mat assay) is more than 6.25 µM; in experiment [1] (Primates, COS), less than 0.025 µM.
Turning to `O=C(Cc1cc[n+]([O-])cc1)N1CCC(=C2c3ccc(Cl)c(Br)c3CCc3cc(Br)cnc32)CC1` [Example 2], the “did not block the geranylgeranylation of Ras-CVLL at concentrations up to” value in experiment [3] is given as more than 33 µM. In addition, the IC50 in experiment [2] (setting [4]) was found to be 6.25 µM.
With `O=C(Cc1cc[n+]([O-])cc1)N1CCC([C@H]2c3ncc(Br)cc3CCc3cc(Cl)cc(Br)c32)CC1` [Example 9], the IC50 in experiment [2] (setting [4]) came to 6.25 µM; in experiment [1] (Primates, COS), 0.01 µM.
